Assay results taken from doi:10.1101/2022.05.23.493001v4 (biorxiv, 2022).

Test system: STING in THP-1 cells (endogenous)
Assay: cells
Conditions: Homo sapiens, THP-1, 6 h, read-out: EC50 IFN-β THP-1

CSc1c(Cl)ccc2c(=O)c3ccc(C(C)(C)C)cc3n(CC(=O)O)c12 [SNX281]
EC50: 6.6 µM
